One molecule from US20230097866A1, “BACTERIAL TOPOISOMERASE INHIBITORS DERIVED FROM ISOMANNIDE” (Ohio State Innovation Foundation, priority 2020, published 2023) can be followed below.

≈ marks a conversion by molar mass, not a printed value.

For data set [1], the system named is Fluoroquinolone-resistant S. aureus (11 strains). As to the kind of experiment: MIC90, panel of fluoroquinolone-resistant MRSA isolates. Type of data set: cell-based, Staphylococcus aureus.
For data set [2], the system named is S. aureus ATCC 29213. Put plainly: MIC panel (Laboratory Specialists, Inc.), S. aureus ATCC 29213. It counts as cell-based. As to conditions: Staphylococcus aureus, ATCC29213, read-out: MIC S. aureus ATCC 29213 (n = 3); Cmpd. 6; CLSI broth microdilution; very small pinpoint growth up to 4 μg/mL. In general terms: In broth dilution the organism is exposed to a series of concentrations in liquid medium.

Data set [3] deals with S. aureus ATCC 29213. It counts as cell-based, Staphylococcus aureus. The conditions noted are these: S. aureus ATCC 29213.
The subject of data set [4] is S. aureus ATCC 29213. As to the kind of experiment: MIC, CLSI broth microdilution, S. aureus ATCC 29213. It counts as cell-based. The conditions noted are these: Staphylococcus aureus, ATCC29213.
For data set [5], the system named is Streptococcus pneumoniae LSI-4246. Put plainly: MIC panel (Laboratory Specialists, Inc.), S. pneumoniae LSI-4246. The conditions noted are these: LSI4246, Cmpd. 6, penicillin-resistant strain. It counts as cell-based.
Another data set concerns the target T1, CYP1A2 (Homo sapiens, UniProt P05177).
T1 construct: incubated with human liver microsomes (mixed gender, pool of 50 donors, 0.1 mg/mL); from tissue; host or cells: human liver microsomes, pool of 50 donors
It counts as in vitro ADME. The conditions noted are these: 10 μM; human liver microsomes. How it is done:
CYP450 inhibition assays was conducted using individual enzyme substrates and inhibitors instead of a cocktail to avoid interferences. CYP450 isoforms tested included the following: CYP1A2, CYP2B6, CYP2C8, CYP2C9, CYP2C19, CYP2D6, and CYP3A4. Each test compound was screened at a final concentration of 10 μM. Each test compound was incubated with human liver microsomes (mixed gender, pool of 50 donors, 0.1 mg/mL), CYP450-selective probe substrates, and co-factors (NADPH, MgCl2) in phosphate buffer (pH 7.4) for 10-30 min in a 96-well plate at 37° C. The reactions were stopped by transferring the reaction mixture to acetonitrile/methanol. Samples were mixed and centrifuged, and the supernatants analyzed by LC-MS/MS to quantify percent inhibition relative to vehicle control.
Background: Liver microsomes are a subcellular fraction often used to study metabolism.

The target of data set [6] is T2, hERG Human Potassium Ion Channel (Homo sapiens, UniProt Q12809).
T2 construct: expressed in transfected cells
Put plainly: hERG QPatch CiPA assay. As to conditions: mean, duplicate. It counts as cell-based. The text has this:
Early drug discovery programs commonly assess hERG inhibition as the only indicator of potential cardiovascular safety concerns. Researchers have recently recommended a more rigorous evaluation of multiple cardiac ion channels to provide a more comprehensive cardiovascular risk assessment (Fermini, B., et al., A New Perspective in the Field of Cardiac Safety Testing through the Comprehensive In Vitro Proarrhythmia Assay Paradigm. J. Biomolec. Screening 2016, 21, 1-11). Given the promising initial results for 6, further evaluation was undertaken (in duplicate) in a Comprehensive in vitro Proarrhythmia Assay (CiPA) eight assay panel run on the QPatch HT (Sophion, Denmark) automated patch clamp system at three concentrations (3, 30, and 100 μM). All data were filtered for seal quality, seal drop, and current amplitude. A stock solution of the test compound at 30 mM concentration was prepared in DMSO.
The parameters measured were the maximum tail current evoked on stepping to 40 mV and ramping back to −80 mV from the test pulse. The peak current amplitude was calculated before and after compound addition and the amount of block was assessed by dividing the Test compound current amplitude by the Control current amplitude. Control is the mean hERG current amplitude collected 15 seconds at the end of the control; Test Compound is the mean hERG current amplitude collected in the presence of test compound at each concentration. The positive control was E-4031.
(In general: The hERG channel carries a current that helps repolarise heart muscle cells.)

T2 sequence (Q12809 whole entry): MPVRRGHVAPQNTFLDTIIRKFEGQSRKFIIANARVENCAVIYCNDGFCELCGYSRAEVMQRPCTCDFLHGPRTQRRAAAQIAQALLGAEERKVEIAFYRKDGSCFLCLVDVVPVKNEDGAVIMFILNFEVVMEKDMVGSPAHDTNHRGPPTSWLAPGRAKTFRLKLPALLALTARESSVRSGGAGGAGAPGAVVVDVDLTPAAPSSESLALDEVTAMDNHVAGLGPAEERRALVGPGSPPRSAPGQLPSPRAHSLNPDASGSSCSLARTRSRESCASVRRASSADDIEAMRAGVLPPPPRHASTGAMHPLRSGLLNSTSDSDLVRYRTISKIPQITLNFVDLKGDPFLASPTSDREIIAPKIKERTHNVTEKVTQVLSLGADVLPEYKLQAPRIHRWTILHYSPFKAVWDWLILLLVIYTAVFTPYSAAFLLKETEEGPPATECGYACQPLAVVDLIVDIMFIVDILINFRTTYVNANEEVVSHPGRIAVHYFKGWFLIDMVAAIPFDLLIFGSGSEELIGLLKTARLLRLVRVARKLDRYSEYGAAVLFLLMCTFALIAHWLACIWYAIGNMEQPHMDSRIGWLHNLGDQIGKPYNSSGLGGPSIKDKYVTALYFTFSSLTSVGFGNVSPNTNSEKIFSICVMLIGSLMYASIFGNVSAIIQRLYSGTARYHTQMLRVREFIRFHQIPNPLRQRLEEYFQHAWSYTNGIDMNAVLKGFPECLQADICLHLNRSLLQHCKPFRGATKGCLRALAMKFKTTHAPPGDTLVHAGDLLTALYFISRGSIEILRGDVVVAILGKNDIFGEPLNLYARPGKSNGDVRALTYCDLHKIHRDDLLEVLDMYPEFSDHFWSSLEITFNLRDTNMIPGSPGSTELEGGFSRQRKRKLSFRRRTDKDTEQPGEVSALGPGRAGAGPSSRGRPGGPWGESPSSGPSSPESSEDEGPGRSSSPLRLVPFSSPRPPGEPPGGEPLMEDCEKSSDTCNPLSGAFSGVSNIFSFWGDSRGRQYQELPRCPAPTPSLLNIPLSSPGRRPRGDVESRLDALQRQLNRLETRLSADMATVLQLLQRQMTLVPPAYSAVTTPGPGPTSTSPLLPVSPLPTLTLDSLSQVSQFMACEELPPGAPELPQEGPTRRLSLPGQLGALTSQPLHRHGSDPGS
T1 sequence (P05177 whole entry): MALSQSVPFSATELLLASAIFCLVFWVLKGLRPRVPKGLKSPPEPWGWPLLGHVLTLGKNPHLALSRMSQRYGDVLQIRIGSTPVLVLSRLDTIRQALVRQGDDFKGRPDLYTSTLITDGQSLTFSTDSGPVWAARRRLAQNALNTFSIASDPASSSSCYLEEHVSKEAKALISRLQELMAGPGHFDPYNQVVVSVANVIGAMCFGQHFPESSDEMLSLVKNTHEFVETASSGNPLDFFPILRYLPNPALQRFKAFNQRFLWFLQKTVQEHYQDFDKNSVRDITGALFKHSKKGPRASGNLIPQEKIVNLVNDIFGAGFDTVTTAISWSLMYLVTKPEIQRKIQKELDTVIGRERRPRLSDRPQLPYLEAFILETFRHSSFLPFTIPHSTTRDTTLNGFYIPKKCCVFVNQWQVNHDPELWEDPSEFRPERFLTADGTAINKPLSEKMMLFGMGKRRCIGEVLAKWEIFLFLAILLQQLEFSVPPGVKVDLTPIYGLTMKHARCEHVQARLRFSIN

As for `COc1ccc2ncc(F)c(CC[C@@]3(O)CO[C@@H]4[C@@H](NCc5cc6c(cn5)OCCO6)CO[C@@H]43)c2n1` [Compound 6, (3R, 3aS,6S,6aR)-6-(((2,3-dihydro-[1,4]dioxino[2,36-c]pyridin-7-yl)methyl)amnino)-3-(2-(3-fluoro-6-methoxy-1,5-naphthyridin-4-yl)ethyl)hexahydrofuro[3,2-b]furan-3-ol], the MIC90 (in general, an inhibitory concentration at the 90% level, which refers to growth in some studies and to a panel of isolates in others) in data set [1] (Staphylococcus aureus, Cmpd. 6, MIC90) worked out at 2 µg/mL (≈ 4.01 µM). Further, the “MIC90 better than that of ciprofloxacin” value in data set [1] (panel of fluoroquinolone-resistant MRSA isolates) was found to be 16 fold. The MIC (as a rule, the lowest concentration that inhibits growth of the organism) with S. aureus ATCC 29213 [2] was 0.25 µg/mL (≈ 0.501 µM); in the data set with S. aureus ATCC 29213 [4] (CLSI broth microdilution, triplicate, read-out: MIC ATCC 29213), 1 to 4 µg/mL; with S. aureus ATCC 29213 [4] (same MIC expressed in μM, read-out: MIC for S. aureus ATCC 29213), 2 to 8 µM; in data set [5], ≤ 0.12 µg/mL. In addition, in the data set on S. aureus ATCC 29213 [3] (8X agar dilution MIC), the “Spontaneous mutation frequency (8X MIC)” value is listed as 7.89 × 10^−8 (n = 1). In addition, the “Spontaneous mutation frequency (16X MIC)” value with S. aureus ATCC 29213 [3] (16X agar dilution MIC) is given as 1.57 × 10^−9 (n = 1). For the same molecule, the CYP1A2 inhibition entry at CYP1A2 is “Less than 50%”. The “% Inhibition hERG (tail current)” value in data set [6] (3 μM) was −2.4%; in data set [6] (30 μM) it was 11.3%; in data set [6] (100 μM), 39.0%.
